Test results from US9073941B2, “Compounds and methods for treating tuberculosis infection” (Academia Sinica, priority 2010, dated 2015).
Like-named read-outs stand apart in the source and are kept apart here.

Target: lipoamide dehydrogenase (Lpd) (Mycobacterium tuberculosis (strain ATCC 25618 / H37Rv), UniProt P9WHH9)
Test: Lipoamide Dehydrogenase (Lpd) Inhibition Assay
Format: biochemical
[1] = concentration required for 50% inhibition of LPD activity, DTNB detection, OD405 nm

SMILES	IC50 [1] [µM]	IC50 [µM]
CCOc1ccc(CNC(=O)C2CCN(S(=O)(=O)c3cn(C(C)C)cn3)CC2)cc1OC [Compound 561]	3.02 ± 1.78	–
Cc1ccc(CNC(=O)CN(C)S(=O)(=O)c2cc(Br)cnc2N)cc1 [Compound 506]	3.31 ± 0.49	–
CC(C)c1ccc(NC(=O)CN(C)S(=O)(=O)c2cc(Br)cnc2N)cc1 [Compound 505]	0.84 ± 0.11	–
COc1ccc(NC(=O)CN(C)S(=O)(=O)c2cc(Br)cnc2N)cc1Cl [Compound 503]	–	0.7 ± 0.08
CN(C(=O)c1ccc2c(c1)OCCO2)c1nc2c(s1)CCc1c-2cnn1C [Compound 1106]	–	2.67 ± 0.23
Cc1ccc2nc(NC(=O)C3CCN(S(=O)(=O)c4cn(C(C)C)cn4)CC3)sc2c1 [Compound 542]	5.06 ± 1.09	–
CC(C)n1cnc(S(=O)(=O)N2CCC(C(=O)Nc3cccc(Br)c3)CC2)c1 [Compound 519]	2.76 ± 0.59	–
CCOc1ccc2nc(O)c(CNc3ccc4[nH]ncc4c3)cc2c1 [Compound 807]	4.54 ± 0.77	–
CC(C)n1cnc(S(=O)(=O)N2CCC(C(=O)NCc3ccc(Br)cc3)CC2)c1 [Compound 555]	3.2 ± 1.05	–
CC(C)c1ccc(NC(=O)C2CCN(S(=O)(=O)c3cn(C(C)C)cn3)CC2)cc1 [Compound 509]	–	2.87 ± 0.52
CCOc1ccc2nc(NC(=O)C3CCN(S(=O)(=O)c4cn(CC)cn4)CC3)sc2c1 [Compound 562]	3.5 ± 0.47	–
CC(C)n1cnc(S(=O)(=O)N2CCC(C(=O)Nc3cccc(F)c3)CC2)c1 [Compound 517]	3.61 ± 0.98	–
CN(C(=O)c1ccc(Cn2cccn2)o1)c1nc2c(s1)CCc1c-2cnn1C [Compound 1105]	3.64 ± 0.51	–
COc1ccc2nc(NC(=O)C3CCN(S(=O)(=O)c4cn(C(C)C)cn4)CC3)sc2c1 [Compound 551]	2.28 ± 0.11	–
Cc1ccc(NC(=O)C2CCN(S(=O)(=O)c3cn(C(C)C)cn3)CC2)cc1Cl [Compound 533]	2.64 ± 0.19	–
CC(C)n1cnc(S(=O)(=O)N2CCC(C(=O)Nc3cccc(Cl)c3)CC2)c1 [Compound 518]	3.83 ± 0.78	–
CCCN(C(=O)c1ccc(COC)o1)c1nc2c(s1)CCc1c-2cnn1C [Compound 1102]	3.16 ± 0.43	–
CCn1cnc(S(=O)(=O)N2CCC(C(=O)Nc3nc4ccc(OC)cc4s3)CC2)c1 [Compound 563]	3.02 ± 0.87	–
CC(C)n1cnc(S(=O)(=O)N2CCC(C(=O)NCc3ccc(F)cc3)CC2)c1 [Compound 557]	–	3.55 ± 1.17
CCc1cccc(NC(=O)C2CCN(S(=O)(=O)c3cn(C(C)C)cn3)CC2)c1 [Compound 511]	2.55 ± 0.79	–
CCn1cnc(S(=O)(=O)N2CCC(C(=O)NCCc3nc4cc(C)ccc4[nH]3)CC2)c1 [Compound 566]	3.91 ± 0.79	–

SMILES	IC50 [1] [µM]	IC50 [µM]
CC(C)n1cnc(S(=O)(=O)N2CCC(C(=O)Nc3ccccc3F)CC2)c1 [Compound 524]	2.67 ± 0.65	–
CC(C)n1cnc(S(=O)(=O)N2CCC(C(=O)Nc3ccc(S(N)(=O)=O)cc3)CC2)c1 [Compound 513]	4.12 ± 1.81	–
COc1ccc(NC(=O)CN(C)S(=O)(=O)c2cc(Br)cnc2N)cc1OC [Compound 502]	0.84 ± 0.13	–
CCn1cnc(S(=O)(=O)N2CCC(C(=O)Nc3ccc(OC)cc3)CC2)c1 [Compound 541]	3.31 ± 1.22	–
CC(C)n1cnc(S(=O)(=O)N2CCC(C(=O)NCCCc3ccccc3)CC2)c1 [Compound 547]	2.67 ± 0.6	–
CCOc1ccc(NC(=O)C2CCN(S(=O)(=O)c3cn(C(C)C)cn3)CC2)cc1 [Compound 520]	–	2.17 ± 0.37
Cc1ccc(C)c(NC(=O)C2CCN(S(=O)(=O)c3cn(C(C)C)cn3)CC2)c1 [Compound 529]	3.92 ± 2.47	–
CC(C)n1cnc(S(=O)(=O)N2CCC(C(=O)Nc3ccc(Cl)cc3)CC2)c1 [Compound 522]	2.94 ± 0.72	–
CC(C)n1cnc(S(=O)(=O)N2CCC(C(=O)NCc3cccs3)CC2)c1 [Compound 549]	–	3.42 ± 1.33
COc1ccc(NC(=O)C2CCN(S(=O)(=O)c3cn(C(C)C)cn3)CC2)cc1 [Compound 521]	2.31 ± 0.36	–
CN(CC(=O)Nc1ccc(F)cc1)S(=O)(=O)c1cc(Br)cnc1N [Compound 504]	–	4.3 ± 1.21
CCOc1ccccc1CNC(=O)C1CCN(S(=O)(=O)c2cn(C(C)C)cn2)CC1 [Compound 554]	3.42 ± 0.88	–
Oc1ccc(NCc2cc3ccccc3nc2O)cc1 [Compound 803]	1.62 ± 0.18	–
CCn1cnc(S(=O)(=O)N2CCC(C(=O)Nc3ccc4c(c3)OCCO4)CC2)c1 [Compound 545]	2.69 ± 0.56	–
CCc1ccc(NC(=O)C2CCN(S(=O)(=O)c3cn(C(C)C)cn3)CC2)cc1 [Compound 512]	2.9 ± 0.71	–
CC(C)n1cnc(S(=O)(=O)N2CCC(C(=O)Nc3ccc(F)c(Cl)c3)CC2)c1 [Compound 527]	3.13 ± 0.79	–
COc1ccc2cc(CNc3ccc(O)cc3)c(O)nc2c1 [Compound 801]	2.25 ± 0.16	–
CN(C(=O)Cc1cccs1)c1nc2c(s1)CCc1c-2cnn1C [Compound 1103]	2.89 ± 0.46	–
Cc1ccc2cc(CNc3ccc(O)cc3)c(O)nc2c1 [Compound 805]	1.64 ± 0.14	–
CSc1cccc(NC(=O)C2CCN(S(=O)(=O)c3cn(C(C)C)cn3)CC2)c1 [Compound 515]	4.81 ± 0.84	–
CCOC(=O)c1ccc(NC(=O)C2CCN(S(=O)(=O)c3cn(C(C)C)cn3)CC2)cc1 [Compound 525]	2.44 ± 0.58	–

SMILES	IC50 [1] [µM]	IC50 [µM]
CCn1cnc(S(=O)(=O)N2CCC(C(=O)Nc3ccc(OC)c(Cl)c3)CC2)c1 [Compound 548]	2.35 ± 0.52	–
Cc1cccc(CNC(=O)C2CCN(S(=O)(=O)c3cn(C(C)C)cn3)CC2)c1 [Compound 540]	–	4.18 ± 1.09
COc1cc(Cl)c(NC(=O)C2CCN(S(=O)(=O)c3cn(C(C)C)cn3)CC2)c(OC)c1 [Compound 552]	–	2.87 ± 0.67
COc1cc(OC)c(NC(=O)C2CCN(S(=O)(=O)c3cn(C(C)C)cn3)CC2)cc1Cl [Compound 546]	–	2.85 ± 0.78
Cc1ccc(NC(=O)C2CCN(S(=O)(=O)c3cn(C(C)C)cn3)CC2)cc1N(C)C [Compound 526]	2.79 ± 0.72	–
Cc1cc(NC(=O)C2CCN(S(=O)(=O)c3cn(C(C)C)cn3)CC2)ccc1Br [Compound 531]	4.11 ± 1.59	–
CC(C)n1cnc(S(=O)(=O)N2CCC(C(=O)NCc3ccc(Cl)cc3)CC2)c1 [Compound 556]	3.75 ± 1.01	–
CCSc1nnc(NC(=O)C2CCN(S(=O)(=O)c3cn(CC)cn3)CC2)s1 [Compound 565]	3.06 ± 0.47	–
Cc1cc(C)cc(NC(=O)C2CCN(S(=O)(=O)c3cn(C(C)C)cn3)CC2)c1 [Compound 514]	2.67 ± 0.57	–
CCOc1ccc2cc(CNc3ccc(O)cc3)c(O)nc2c1 [Compound 802]	3.34 ± 0.26	–
CC(C)n1cnc(S(=O)(=O)N2CCC(C(=O)NCc3ccccc3)CC2)c1 [Compound 536]	–	2.69 ± 0.8
Cn1c(=O)nc2[nH]nc(/C=C/c3ccccc3)nc-2c1=O [Compound 622]	2.16 ± 0.26	–
Oc1ccc(NCc2cc3cc4c(cc3nc2O)OCO4)cc1 [Compound 804]	4.67 ± 0.57	–
CCn1cnc(S(=O)(=O)N2CCC(C(=O)Nc3ccc(C)c(Cl)c3)CC2)c1 [Compound 544]	4.55 ± 1.27	–
CC(C)Oc1ccc(CNC(=O)C2CCN(S(=O)(=O)c3cn(C(C)C)cn3)CC2)cc1 [Compound 560]	3.86 ± 0.9	–
COc1ccc(CCNC(=O)C2CCN(S(=O)(=O)c3cn(C(C)C)cn3)CC2)cc1OC [Compound 564]	2.22 ± 0.52	–
CC(C)n1cnc(S(=O)(=O)N2CCC(C(=O)NC3CC3)CC2)c1 [Compound 559]	2.99 ± 1.39	–
COCCN(C(=O)c1cccs1)c1nc2c(s1)CCc1c-2cnn1C [Compound 1101]	1.62 ± 0.24	–
CCOc1ccc(NC(=O)C2CCN(S(=O)(=O)c3cn(CC)cn3)CC2)cc1 [Compound 543]	–	3.97 ± 1.13
